Measured values as given in paper PMC4832822, “Investigating the Influence of (Deoxy)fluorination on the Lipophilicity of Non‐UV‐Active Fluorinated Alkanols and Carbohydrates by a New log P Determination Method” (Angewandte Chemie (International Ed. in English), 2015).
Several values for one entry are separate records, joined by “and”; a condition that tells them apart may be missing. Identical values can stand only once.

Experiments:
[1] = milogP calculated using Molinspiration Cheminformatics; details: Table SI14
[2] = log P determination by 19F NMR shake-flask method with internal fluorinated reference (octanol/water)
[3] = method and temperature not provided; ref U.S. National Library of Medicine online database (chemidplus); cited from earlier work
[4] = octanol/water, logP, 19F NMR, 25 °C, average value
[5] = Average logP, 25 °C, reference TFE (+0.36)
[6] = error (mean logP to three decimals)
[7] = logP, octanol/water, 19F NMR, 25 °C, average value
[8] = logP, single experiment, reference TFE (+0.36)
[9] = octanol/water, Average logP, 25 °C, reference TFE (+0.36)
[10] = octanol/water, error (mean logP to three decimals), reference TFE (+0.36)
[11] = octanol/water, logP, single experiment, reference TFE (+0.36)
[12] = single experiment, reference TFE (+0.36)
[13] = octanol/water, Average logP, reference 4,4,4-trifluoro-1-butanol (TB, +0.91EXP)
[14] = octanol/water, error (mean logP to three decimals), reference TB (+0.91EXP)
[15] = octanol/water, logP, single experiment, reference 4,4,4-trifluoro-1-butanol (TB, +0.91EXP)
[16] = octanol/water, Average logP, 25 °C, reference FE (-0.75)
[17] = octanol/water, error (mean logP to three decimals), reference FE (-0.75)
[18] = single experiment, reference FE (-0.75)

Row | Compound | ΔlogP (milogP vs logP exp) [1] | logP [2, 4] | logP [2, 9] | logP [2, 10] | logP [2, 11] | other results
1 | CC(C)(C)[C@H]1CC[C@H](O)[C@H](F)C1 (relative stereo) [compound 42] | +0.07 | 2.63 |  |  |  | 
2 | CC(C)(C)[C@H]1CC[C@H](O)[C@@H](F)C1 (relative stereo) [compound 43] |  | 2.61 |  |  |  | 
3 | CC(C)(C)[C@H]1CC[C@@H](O)[C@H](F)C1 (relative stereo) [compound 44] | -0.51 | 3.21 |  |  |  | 
4 | CCCC(C)O (stereo not shown) [G, 2-PentOH, reference compound] |  |  |  |  |  | logP (lit) [3]: +1.19
5 | CC(C)(C)[C@H]1CC[C@H](O)CC1 [K, reference compound] |  |  |  |  |  | logP (lit) [3]: +3.09
6 | CC(C)(C)[C@H]1CC[C@@H](O)CC1 [L, reference compound] |  |  |  |  |  | logP (lit) [3]: +3.02
7 | OCC(F)(F)F [compound 3, 2,2,2-Trifluoroethanol] | +0.25 |  |  |  |  | 
8 | OC(CF)CF [compound 4] |  |  |  |  |  | Average logP ([2]; 25 °C, reference TFE (+0.36)): -0.42; logP (physchem; [5]): -0.42; logP (physchem; [6]): -0.421; logP (physchem; [7]): -0.42; logP (physchem; [8]): -0.42
9 | OCCC(F)F [compound 10] | +0.48 |  | 0.04 | 0.038 | 0.033 | 
10 | CC(F)(F)CO [compound 11] | +0.59 | 0.11 | 0.11 | 0.11 | 0.113 | 
11 | CC(C)(O)C(F)(F)F [compound 14] | +0.39 |  | 1.03 | 1.03 | 1.03 | 
12 | CC(O)(C(F)(F)F)C(F)(F)F [compound 15] |  |  |  |  |  | logP (physchem; [6]): 2.08; logP (physchem; logP): 2.08
13 | CC(O)CCF (stereo not shown) [compound 16] |  |  |  |  |  | logP (physchem; Average logP): 0.08; logP (physchem; [6]): 0.084; logP (physchem; logP): 0.077
14 | CC(O)CC(F)F (stereo not shown) [compound 17] | +0.46 | 0.42 | 0.42 | 0.417 | 0.42 | 
15 | CC(O)CC(F)(F)F (stereo not shown) [compound 18] | +0.53 | 0.71 | 0.72 | 0.721 | 0.725 | ΔlogP (exp. logP vs logP lit) ([2]; Table SI12): +0.01
16 | CC(O)C(F)(F)C(F)F (stereo not shown) [compound 19] |  |  |  |  |  | logP (physchem; Average logP): 1.05; logP (physchem; [6]): 1.05; logP (physchem; logP): 1.05
17 | CC(O)C(F)(F)C(F)(F)F (stereo not shown) [compound 20] |  |  |  |  |  | logP (physchem; Average logP): 1.53; logP (physchem; [6]): 1.53; logP (physchem; logP): 1.53
18 | OCCCCF [compound 21] |  |  |  |  |  | logP (physchem; [5]): 0.09; logP (physchem; error (mean logP to three decimals), reference TFE (+0.36)): 0.09; logP (physchem; logP): 0.092; logP (physchem; [7]): 0.09; logP (physchem; [8]): 0.09
19 | CC(F)CCO (stereo not shown) [compound 22, 3-fluorobutan-1-ol] |  |  | 0.17 | 0.173 | 0.166 | 
20 | OCCC(F)(F)C(F)(F)F [compound 24] |  |  |  |  |  | logP (physchem; Average logP): 1.3; logP (physchem; [6]): 1.3; logP (physchem; logP): 1.29
21 | C[C@H](O)C[C@@H](C)F [compound 26] | +0.49 |  | 0.48 | 0.477 | 0.476 | logP [2, 12]: +0.476
22 | C[C@H](O)C[C@H](C)F [compound 27] | +0.40 | 0.57 | 0.57 | 0.569 | 0.57 | 
23 | CC(O)CC(C)(F)F (stereo not shown) [compound 28] | +0.67 |  | 0.66 | 0.662 | 0.659 | 

Row | Compound | ΔlogP (milogP vs logP exp) [1] | logP [2, 4] | logP [2, 9] | logP [2, 10] | logP [2, 11] | other results
24 | CCCC(O)C(F)(F)F (stereo not shown) [compound 29, 1,1,1-trifluoropentan-2-ol] |  |  | 1.82 | 1.82 | 1.83 | 
25 | OCCCCCF [compound 30, 5-fluoro-1-pentanol] |  |  |  |  |  | logP (physchem; Average logP): 0.52; logP (physchem; [6]): 0.524; logP (physchem; logP): 0.524
26 | CC(F)CCCO (stereo not shown) [compound 31, 4-fluoropentan-1-ol] |  |  | 0.52 | 0.522 | 0.517 | 
27 | CC(F)(F)CCCO [compound 32, 4,4-difluoropentan-1-ol] |  |  | 0.71 | 0.708 | 0.712 | logP [2, 12]: +0.712
28 | CCCC(F)CO (stereo not shown) [compound 33, 2-fluoropentan-1-ol] |  |  | 0.87 | 0.868 | 0.872 | logP ([2]; multiple acquisitions of one sample (Table SI7), single acquisition, reference 2,2,2-trifluoroethanol): 0.5206 and 0.5160 and 0.5224 and 0.5294 and 0.5210 and 0.5213; logP ([2]; multiple reprocessing of one FID (Table SI8), single reprocessing): 0.5205 and 0.5167 and 0.5166 and 0.5215 and 0.5186; logP ([2]; octanol/water, logP Average, seven acquisitions (Table SI7)): 0.521; logP ([2]; octanol/water, logP Average, seven reprocessings (Table SI8)): 0.518; logP ([2]; octanol/water, logP, multiple acquisitions of one sample (Table SI7), single acquisition, reference 2,2,2-trifluoroethanol): 0.517; logP ([2]; octanol/water, logP, multiple reprocessing of one FID (Table SI8), single reprocessing): 0.513
29 | OCCCC(F)(F)C(F)F [compound 34, 4,4,5,5-tetrafluoropentan-1-ol] |  |  |  |  |  | logP (physchem; Average logP): 0.97; logP (physchem; [6]): 0.974; logP (physchem; logP): 0.971
30 | OCCCC(F)(F)C(F)(F)F [compound 36] |  |  |  |  |  | logP (physchem; Average logP): 1.72; logP (physchem; [6]): 1.72; logP (physchem; logP): 1.73
31 | CC[C@H](O)C[C@H](F)CC [compound 37] | +0.40 | 1.58 |  |  |  | logP [2, 13]: 1.58; logP [2, 14]: 1.58; logP [2, 15]: 1.58
32 | CC[C@H](O)C[C@@H](F)CC [compound 38] | +0.27 | 1.71 |  |  |  | logP [2, 13]: 1.71; logP [2, 14]: 1.71; logP [2, 15]: 1.69
33 | OC[C@H](F)[C@@H](F)CO [compound 39] | +0.63 |  |  |  |  | logP [2, 16]: -1.01; logP [2, 17]: -1.01; logP [2, 18]: -1.006 and -1.012
34 | OC[C@@H](F)[C@@H](F)CO [compound 40] | +0.59 |  |  |  |  | logP [2, 16]: -0.97; logP ([2]; octanol/water, Average logP, internal validation, reference -1.01EXP): -0.98; logP ([2]; octanol/water, error (mean logP to three decimals), internal validation, reference -1.01EXP): -0.98; logP [2, 17]: -0.968; logP ([2]; single experiment, internal validation, reference -1.01EXP): -0.981 and -0.984 and -0.975; logP [2, 18]: -0.957
35 | OCC(F)(F)C(F)(F)CO [compound 41] |  |  |  |  |  | logP (physchem; Average logP): -0.11; logP (physchem; [6]): -0.109
36 | CC(C)(C)C1CCC(O)CC1F (stereo not shown) [compound 45] |  | 2.23 |  |  |  | 
37 | O=C[C@H](O)[C@@H](F)[C@@H](O)[C@H](O)CO [compound 46, 3-Fluoro-3-deoxy-D-galactose] | +0.32 | -2.47 |  |  |  | 
38 | O=C[C@H](F)[C@@H](O)[C@@H](O)[C@H](O)CO [compound 47, 2-Fluoro-2-deoxy-D-galactose] | +0.44 | -2.37 |  |  |  | 
39 | O=C[C@H](O)[C@@H](O)[C@H](O)[C@H](O)CF [compound 48, 6-Fluoro-6-deoxy-D-glucose] | +0.65 | -2.36 |  |  |  | 
40 | O=C[C@H](F)[C@@H](O)[C@H](O)[C@H](O)CO [compound 49, 2-Fluoro-2-deoxy-D-glucose] | +0.28 | -2.21 |  |  |  | 
41 | O=C[C@@H](F)[C@@H](O)[C@H](O)[C@H](O)CO [compound 50, 2-Fluoro-2-deoxy-D-mannose] |  | -2.11 |  |  |  | 
42 | OC[C@H]1OC(O)C[C@@H](F)[C@@H]1O (stereo partly drawn) [compound 51, 2,3-Dideoxy-3-fluoro-D-glucopyranose] |  | -1.45 |  |  |  | 
43 | OC[C@H]1OC(O)[C@H](F)[C@@H](F)[C@@H]1O (stereo partly drawn) [compound 52, 2,3-Dideoxy-2,3-difluoro-D-glucopyranose] |  | -1.11 |  |  |  | logP ([2]; octanol/water, log P units more lipophilic than Glc, relative to glucose): ~2.1; logP ([2]; octanol/water, logP, single experiment, reference FE (-0.75)): -1.11
44 | OC[C@H]1OC(O)C(F)(F)C(F)(F)[C@H]1O (stereo partly drawn) [compound 53, 2,3-Dideoxy-2,2,3,3-tetrafluoro-D-threo-hexopyranose] | +0.07 |  | -0.58 | -0.576 |  | logP [2, 12]: -0.574 and -0.573 and -0.583
45 | OC[C@H]1OC(O)C(F)(F)C(F)(F)[C@@H]1O (stereo partly drawn) [compound 54, 2,3-Dideoxy-2,2,3,3-tetrafluoro-D-erythro-hexopyranose] |  |  | -0.32 |  | -0.316 | 
